Assay results taken from patent US20070117743A1, “New antitumoral compounds” (priority 2003, published 2007).
Where a SMILES comes first, the peptide text is derived from it. Bridges are numbered along the chain shown (N, C = ends). [ ]: non-standard residue; d: D form. The star is where a group is joined. d(aIle) = CC[C@H](C)[C@@H](N)C(=O)O; d(aThr) = C[C@@H](O)[C@@H](N)C(=O)O; Hexanoyl(5-Me) = CC(C)CCCC(=O)*; Orn = NCCC[C@H](N)C(=O)O; Dhb = C/C=C(\N)C(=O)O

What was measured:
Assay type in all cases: cell-based, human
A-549 = assay: SRB colorimetric assay of cell growth and viability, A-549; settings: A-549, 48 hours exposure; for GI50: read-out: GI50 A-549; for CC50: read-out: LC50 A-549
SK-MEL-28 = assay: SRB colorimetric assay of cell growth and viability, SK-MEL-28; settings: MEL-28, 48 hours exposure; for CC50: read-out: LC50 MEL-28
HT-29 = assay: SRB colorimetric assay of cell growth and viability, HT-29; settings: HT-29, 48 hours exposure; for GI50: read-out: GI50 HT-29; for CC50: read-out: LC50 HT-29
LoVo-Dox = assay: SRB colorimetric assay of cell growth and viability, LoVo-Dox; settings: LOVO-DOX, 48 hours exposure; for CC50: read-out: LC50 LOVO-DOX
Summary of the method: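 SRB staining (0.4% wt/vol in 1% acetic acid, 10 min, room temperature) of cells fixed with 50% TCA follows a 48-hour exposure to compound. Plating density is 5×10^3 cells/well, and the OD is taken at 490 nm.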

DU-145 = assay: SRB colorimetric assay of cell growth and viability, DU-145; settings: DU-145; 48 hours exposure
LNCaP = assay: SRB colorimetric assay of cell growth and viability, LNCaP; settings: LN-caP, 48 hours exposure; for CC50: read-out: LC50 LN-caP
SK-BR-3 = assay: SRB colorimetric assay of cell growth and viability, SK-BR-3; settings: SK-BR-3; 48 hours exposure
IGROV-1 = assay: SRB colorimetric assay of cell growth and viability, IGROV-1; settings: IGROV; 48 hours exposure
IGROV-ET = assay: SRB colorimetric assay of cell growth and viability, IGROV-ET; settings: IGROV-ET, 48 hours exposure; for CC50: read-out: LC50 IGROV-ET
HeLa = assay: SRB colorimetric assay of cell growth and viability, HeLa; settings: HELA, 48 hours exposure; for CC50: read-out: LC50 HELA
HeLa-APL = assay: SRB colorimetric assay of cell growth and viability, HeLa-APL; settings: HELA-APL, 48 hours exposure; for CC50: read-out: LC50 HELA-APL
K-562 = assay: SRB colorimetric assay of cell growth and viability, K-562; settings: K-562, 48 hours exposure; for CC50: read-out: LC50 K-562
PANC-1 = assay: SRB colorimetric assay of cell growth and viability, PANC-1; settings: PANC-1, 48 hours exposure; for CC50: read-out: LC50 PANC-1

Row | Structure (SMILES) | TGI A-549 (A-549) | GI50 (A-549) | CC50 (A-549) | GI50 (SK-MEL-28) | TGI MEL-28 (SK-MEL-28) | CC50 (SK-MEL-28) | TGI HT-29 (HT-29) | GI50 (HT-29) | CC50 (HT-29) | GI50 (LoVo-Dox) | TGI LOVO-DOX (LoVo-Dox) | CC50 (LoVo-Dox) | GI50 (DU-145) | LC50 (concentration causing 50% net cell kill) (DU-145) | TGI DU-145 (DU-145) | GI50 (LNCaP) | TGI LN-caP (LNCaP) | CC50 (LNCaP) | GI50 (SK-BR-3) | LC50 (SK-BR-3) | further results
1 | C/C=C1\NC(=O)[C@H](Cc2ccccc2)NC(=O)[C@@H](C(C)C)NC(=O)[C@@H]([C@@H](C)CC)NC(=O)[C@H](NC(=O)[C@H](NC(=O)[C@H](CCCN)NC(=O)[C@H]2CCCN2C(=O)[C@H](NC(=O)[C@@H](NC(=O)[C@H](CCC(=O)O)NC(=O)[C@H](NC(=O)CCCC(C)C)C(C)C)C(C)C)C(C)C)[C@@H](C)CC)[C@@H](C)OC(=O)[C@H](C(C)C)NC1=O [Compound 115, [Glu^12]-KF] ({Hexanoyl(5-Me)}-[dV]EV[dV][dP][Orn][d(aIle)][d(aThr)][d(aIle)][dV]F[Dhb]V; ester 8-C) | 6.64E−06 Molar | 4.1 µM | 6.64 µM | 6.5 µM | 6.64E−06 Molar | 6.64 µM | 2.60E−06 Molar | 1.33 µM | 5.09 µM | 1.52 µM | 3.00E−06 Molar | 5.92 µM | 3.25 µM | 6.64 µM | 6.64E−06 Molar | 1.28 µM | 2.54E−06 Molar | 5.01 µM | 1.35 µM | 6.64 µM | TGI SK-BR-3 (SK-BR-3): 3.01E−06 Molar; GI50 (IGROV-1): 1.54 µM; LC50 (concentration causing 50% net cell killing) (IGROV-1): 6.64 µM; TGI IGROV (IGROV-1): 3.59E−06 Molar; GI50 (IGROV-ET): 1.67 µM; TGI IGROV-ET (IGROV-ET): 3.12E−06 Molar; CC50 (IGROV-ET): 5.83 µM; GI50 (HeLa): 6.64 µM; TGI HELA (HeLa): 6.64E−06 Molar; CC50 (HeLa): 6.64 µM; GI50 (HeLa-APL): 2.99 µM; TGI HELA-APL (HeLa-APL): 6.64E−06 Molar; CC50 (HeLa-APL): 6.64 µM; GI50 (K-562): 6.64 µM; TGI K-562 (K-562): 6.64E−06 Molar; CC50 (K-562): 6.64 µM; GI50 (PANC-1): 6.64 µM; TGI PANC-1 (PANC-1): 6.64E−06 Molar; CC50 (PANC-1): 6.64 µM
2 | C/C=C1\NC(=O)[C@H](Cc2ccccc2)NC(=O)[C@@H](C(C)C)NC(=O)[C@@H]([C@@H](C)CC)NC(=O)[C@H](NC(=O)[C@H](NC(=O)[C@H](CCCN)NC(=O)[C@H]2CCCN2C(=O)[C@H](NC(=O)[C@@H](NC(=O)[C@@H]2CCCN2C(=O)[C@H](NC(=O)CCCC(C)C)C(C)C)C(C)C)C(C)C)[C@@H](C)CC)[C@@H](C)OC(=O)[C@H](C(C)C)NC1=O [Compound 117, [Pro^12]-KF] ({Hexanoyl(5-Me)}-[dV]PV[dV][dP][Orn][d(aIle)][d(aThr)][d(aIle)][dV]F[Dhb]V; ester 8-C) | 6.78E−06 Molar | 3.29 µM | 6.78 µM | 2 µM | 4.26E−06 Molar | 6.78 µM | 3.38E−06 Molar | 0.0176 µM | ≥ 6.49 µM | 1.83 µM | 3.59E−06 Molar | 6.78 µM | 2.41 µM | 6.78 µM | 5.43E−06 Molar | 1.51 µM | 2.87E−06 Molar | 5.45 µM | 1.55 µM | 5.62 µM | TGI SK-BR-3 (SK-BR-3): 2.96E−06 Molar; GI50 (IGROV-1): 1.97 µM; LC50 (concentration causing 50% net cell killing) (IGROV-1): 6.78 µM; TGI IGROV (IGROV-1): 3.70E−06 Molar; GI50 (IGROV-ET): 1.82 µM; TGI IGROV-ET (IGROV-ET): 3.11E−06 Molar; CC50 (IGROV-ET): 5.34 µM; GI50 (HeLa): 1.53 µM; TGI HELA (HeLa): 2.89E−06 Molar; CC50 (HeLa): 5.46 µM; GI50 (HeLa-APL): 1.84 µM; TGI HELA-APL (HeLa-APL): 3.98E−06 Molar; CC50 (HeLa-APL): 6.78 µM; GI50 (K-562): 0.841 µM; TGI K-562 (K-562): 2.10E−06 Molar; CC50 (K-562): 5.22 µM; GI50 (PANC-1): 3.88 µM; TGI PANC-1 (PANC-1): 6.78E−06 Molar; CC50 (PANC-1): 6.78 µM
3 | C/C=C1\NC(=O)[C@H](Cc2ccccc2)NC(=O)[C@@H](C(C)C)NC(=O)[C@@H]([C@@H](C)CC)NC(=O)[C@H](NC(=O)[C@H](NC(=O)[C@H](CCCN)NC(=O)[C@H]2CCCN2C(=O)[C@H](NC(=O)[C@@H](NC(=O)CNC(=O)[C@H](NC(=O)CCCC(C)C)C(C)C)C(C)C)C(C)C)[C@@H](C)CC)[C@@H](C)OC(=O)[C@H](C(C)C)NC1=O [Compound 111, [Gly^12]-KF] ({Hexanoyl(5-Me)}-[dV]GV[dV][dP][Orn][d(aIle)][d(aThr)][d(aIle)][dV]F[Dhb]V; ester 8-C) | 2.59E−06 Molar | 1.09 µM | 6.16 µM | 0.25 µM | 6.31E−07 Molar | 2.9 µM | 2.59E−06 Molar | 0.511 µM | 6.97 µM | 0.324 µM | 1.24E−06 Molar | 4.39 µM | 0.725 µM | 6.97 µM | 2.53E−06 Molar | 0.4 µM | 6.97E−06 Molar | 6.97 µM | 0.41 µM | 5.94 µM | TGI SK-BR-3 (SK-BR-3): 1.54E−06 Molar; GI50 (IGROV-1): 0.167 µM; LC50 (concentration causing 50% net cell killing) (IGROV-1): 1.33 µM; TGI IGROV (IGROV-1): 3.72E−07 Molar; GI50 (IGROV-ET): 0.264 µM; TGI IGROV-ET (IGROV-ET): 1.00E−06 Molar; CC50 (IGROV-ET): 6.97 µM; GI50 (HeLa): 1.26 µM; TGI HELA (HeLa): 2.94E−06 Molar; CC50 (HeLa): 6.86 µM; GI50 (HeLa-APL): 0.355 µM; TGI HELA-APL (HeLa-APL): 1.21E−06 Molar; CC50 (HeLa-APL): 3.51 µM; GI50 (K-562): 0.144 µM; TGI K-562 (K-562): 3.66E−07 Molar; CC50 (K-562): 2.06 µM; GI50 (PANC-1): 0.453 µM; TGI PANC-1 (PANC-1): 1.71E−06 Molar; CC50 (PANC-1): 5.81 µM
4 | C/C=C1\NC(=O)[C@H](Cc2ccccc2)NC(=O)[C@@H](C(C)C)NC(=O)[C@@H]([C@@H](C)CC)NC(=O)[C@H](NC(=O)[C@H](NC(=O)[C@H](CCCN)NC(=O)[C@H]2CCCN2C(=O)[C@H](NC(=O)[C@@H](NC(=O)[C@H](CC(C)C)NC(=O)[C@H](NC(=O)CCCC(C)C)C(C)C)C(C)C)C(C)C)[C@@H](C)CC)[C@@H](C)OC(=O)[C@H](C(C)C)NC1=O [Compound 113, [Leu^12]-KF] ({Hexanoyl(5-Me)}-[dV]LV[dV][dP][Orn][d(aIle)][d(aThr)][d(aIle)][dV]F[Dhb]V; ester 8-C) | 2.95E−06 Molar | 1.44 µM | 6.04 µM | 1.42 µM | 2.77E−06 Molar | 5.37 µM | 1.76E−06 Molar | 0.691 µM | 4.5 µM | 0.226 µM | 6.11E−07 Molar | 6.71 µM | 0.906 µM | 5.09 µM | 2.14E−06 Molar | 0.906 µM | 2.20E−06 Molar | 5.32 µM | 0.292 µM | 6.71 µM | TGI SK-BR-3 (SK-BR-3): 6.13E−07 Molar; GI50 (IGROV-1): 0.415 µM; LC50 (concentration causing 50% net cell killing) (IGROV-1): 6.71 µM; TGI IGROV (IGROV-1): 1.70E−06 Molar; GI50 (IGROV-ET): 0.926 µM; TGI IGROV-ET (IGROV-ET): 2.48E−06 Molar; CC50 (IGROV-ET): 6.62 µM; GI50 (HeLa): 0.191 µM; TGI HELA (HeLa): 4.95E−07 Molar; CC50 (HeLa): 5.79 µM; GI50 (HeLa-APL): 1.19 µM; TGI HELA-APL (HeLa-APL): 2.59E−06 Molar; CC50 (HeLa-APL): 5.66 µM; GI50 (K-562): 1.84 µM; TGI K-562 (K-562): 3.24E−06 Molar; CC50 (K-562): 5.72 µM; GI50 (PANC-1): 1.82 µM; TGI PANC-1 (PANC-1): 4.89E−06 Molar; CC50 (PANC-1): 6.71 µM
